US9492471B2, “Methods of treating a disease or disorder associated with Bruton'S Tyrosine Kinase” (Celgene Avilomics Research, Inc., priority 2013, dated 2016)
Where two headings read alike, the source gives them in different places.

Legend:
Test in all cases: HotSpot kinase profiling
Assay type in all cases: biochemical
STK25/YSK1 = molecular target: T1, STK25/YSK1 (Homo sapiens, UniProt O00506)
T1 construct: purchased Reaction Biology Corp
Summary of the method: (§1)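 Percent inhibition, averaged when run more than once and referenced to a DMSO negative control, came from a radioactive filter-binding readout on P81 paper. Reactions of kinase with freshly made substrate and cofactors ran for 2 h at room temperature.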

LYN B = molecular target: T2, LYN B (Homo sapiens, UniProt P07948)
T2 construct: purchased Reaction Biology Corp
T2 sequence (P07948 1-491 isoform P07948-2): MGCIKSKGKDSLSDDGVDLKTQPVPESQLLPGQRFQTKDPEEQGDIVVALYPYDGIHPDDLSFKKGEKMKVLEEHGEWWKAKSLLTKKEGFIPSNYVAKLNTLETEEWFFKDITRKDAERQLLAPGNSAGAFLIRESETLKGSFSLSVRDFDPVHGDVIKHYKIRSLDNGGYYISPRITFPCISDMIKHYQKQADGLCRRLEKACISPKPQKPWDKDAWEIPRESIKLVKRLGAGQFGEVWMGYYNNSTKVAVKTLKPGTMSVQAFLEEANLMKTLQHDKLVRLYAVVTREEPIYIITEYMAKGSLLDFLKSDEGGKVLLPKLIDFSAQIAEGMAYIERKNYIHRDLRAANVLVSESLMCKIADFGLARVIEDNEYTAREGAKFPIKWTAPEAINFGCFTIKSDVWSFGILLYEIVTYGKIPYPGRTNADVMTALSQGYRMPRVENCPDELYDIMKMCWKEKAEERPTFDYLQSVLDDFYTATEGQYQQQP
Summary of the method: as §1

TYK1/LTK = molecular target: T3, TYK1/LTK (Homo sapiens, UniProt P29376)
T3 construct: purchased Reaction Biology Corp
T3 sequence (P29376 17-864): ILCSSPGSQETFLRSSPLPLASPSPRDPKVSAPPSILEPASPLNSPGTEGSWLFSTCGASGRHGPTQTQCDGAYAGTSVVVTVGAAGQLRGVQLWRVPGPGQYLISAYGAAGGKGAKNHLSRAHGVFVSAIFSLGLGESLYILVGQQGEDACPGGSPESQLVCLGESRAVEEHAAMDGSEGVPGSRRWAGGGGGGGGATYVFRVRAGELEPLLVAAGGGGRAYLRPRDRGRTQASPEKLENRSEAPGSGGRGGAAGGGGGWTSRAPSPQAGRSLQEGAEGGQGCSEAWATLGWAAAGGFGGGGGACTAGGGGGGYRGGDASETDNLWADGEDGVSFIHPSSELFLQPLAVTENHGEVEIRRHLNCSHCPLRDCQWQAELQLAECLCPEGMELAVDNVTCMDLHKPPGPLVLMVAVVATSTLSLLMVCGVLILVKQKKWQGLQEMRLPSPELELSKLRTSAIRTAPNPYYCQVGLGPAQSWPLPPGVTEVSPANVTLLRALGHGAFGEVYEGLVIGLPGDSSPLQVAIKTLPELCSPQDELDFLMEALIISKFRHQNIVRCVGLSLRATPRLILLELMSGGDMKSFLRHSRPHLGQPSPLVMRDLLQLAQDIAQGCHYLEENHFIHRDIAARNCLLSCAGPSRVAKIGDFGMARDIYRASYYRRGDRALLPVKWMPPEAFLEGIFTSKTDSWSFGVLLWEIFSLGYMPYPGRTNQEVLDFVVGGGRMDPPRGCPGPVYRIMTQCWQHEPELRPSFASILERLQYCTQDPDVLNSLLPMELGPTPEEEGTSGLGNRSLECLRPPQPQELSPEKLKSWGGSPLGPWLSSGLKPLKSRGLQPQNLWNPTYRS
Summary of the method: as §1

ASK1/MAP3K5 = molecular target: T4, ASK1/MAP3K5 (Homo sapiens, UniProt Q99683)
T4 construct: purchased Reaction Biology Corp
T4 sequence (Q99683 1-1374): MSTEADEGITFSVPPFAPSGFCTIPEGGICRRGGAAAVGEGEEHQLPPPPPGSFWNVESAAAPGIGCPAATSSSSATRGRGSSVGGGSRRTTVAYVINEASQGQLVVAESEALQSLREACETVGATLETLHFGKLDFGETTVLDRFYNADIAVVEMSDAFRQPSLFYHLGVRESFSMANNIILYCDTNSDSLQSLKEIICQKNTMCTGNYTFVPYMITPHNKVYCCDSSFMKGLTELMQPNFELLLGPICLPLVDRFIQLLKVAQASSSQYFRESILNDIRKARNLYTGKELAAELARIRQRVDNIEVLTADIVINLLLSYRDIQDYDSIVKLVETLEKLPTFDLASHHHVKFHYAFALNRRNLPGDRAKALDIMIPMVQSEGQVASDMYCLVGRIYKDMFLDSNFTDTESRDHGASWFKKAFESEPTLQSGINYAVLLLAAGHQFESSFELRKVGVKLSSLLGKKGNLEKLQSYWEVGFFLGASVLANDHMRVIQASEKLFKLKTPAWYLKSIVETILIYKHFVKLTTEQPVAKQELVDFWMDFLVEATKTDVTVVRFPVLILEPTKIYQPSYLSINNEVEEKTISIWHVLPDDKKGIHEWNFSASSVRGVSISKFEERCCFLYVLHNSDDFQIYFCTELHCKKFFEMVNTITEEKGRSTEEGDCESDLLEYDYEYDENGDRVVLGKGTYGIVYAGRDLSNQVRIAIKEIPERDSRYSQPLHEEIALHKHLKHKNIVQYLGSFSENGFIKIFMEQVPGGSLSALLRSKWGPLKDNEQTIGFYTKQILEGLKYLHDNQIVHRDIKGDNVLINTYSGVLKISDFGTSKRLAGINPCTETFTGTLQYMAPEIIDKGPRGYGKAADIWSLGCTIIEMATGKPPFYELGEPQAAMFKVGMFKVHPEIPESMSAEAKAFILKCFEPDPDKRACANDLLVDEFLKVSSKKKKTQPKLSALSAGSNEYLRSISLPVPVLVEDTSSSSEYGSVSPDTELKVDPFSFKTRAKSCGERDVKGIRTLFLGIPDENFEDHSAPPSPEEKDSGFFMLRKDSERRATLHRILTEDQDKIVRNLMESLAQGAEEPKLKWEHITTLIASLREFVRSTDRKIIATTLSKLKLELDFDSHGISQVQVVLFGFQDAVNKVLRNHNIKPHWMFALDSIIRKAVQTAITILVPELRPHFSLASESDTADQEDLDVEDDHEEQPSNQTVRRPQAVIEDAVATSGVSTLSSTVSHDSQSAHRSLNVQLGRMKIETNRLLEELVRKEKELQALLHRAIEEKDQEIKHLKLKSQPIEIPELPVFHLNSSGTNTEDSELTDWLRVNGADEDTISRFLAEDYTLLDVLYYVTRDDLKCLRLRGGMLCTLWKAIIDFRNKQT
Summary of the method: as §1

CAMK2a = molecular target: T5, CAMK2a (Homo sapiens, UniProt Q9UQM7)
T5 construct: purchased Reaction Biology Corp
T5 sequence (Q9UQM7 whole entry): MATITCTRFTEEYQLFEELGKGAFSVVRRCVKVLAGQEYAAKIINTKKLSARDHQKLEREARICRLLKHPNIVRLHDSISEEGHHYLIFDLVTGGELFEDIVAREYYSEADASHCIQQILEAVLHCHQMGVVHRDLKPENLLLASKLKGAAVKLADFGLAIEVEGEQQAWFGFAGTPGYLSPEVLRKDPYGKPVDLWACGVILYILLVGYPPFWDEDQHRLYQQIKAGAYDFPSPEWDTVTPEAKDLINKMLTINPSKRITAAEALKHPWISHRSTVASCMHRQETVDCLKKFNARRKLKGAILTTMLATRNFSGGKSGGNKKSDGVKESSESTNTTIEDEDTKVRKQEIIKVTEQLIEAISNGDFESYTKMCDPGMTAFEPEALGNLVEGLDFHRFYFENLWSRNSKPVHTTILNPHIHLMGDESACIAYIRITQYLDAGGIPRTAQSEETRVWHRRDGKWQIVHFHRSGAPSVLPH
Summary of the method: as §1

BRSK2 = molecular target: T6, BRSK2 (Homo sapiens, UniProt Q8IWQ3)
T6 construct: purchased Reaction Biology Corp
T6 sequence (Q8IWQ3 1-736): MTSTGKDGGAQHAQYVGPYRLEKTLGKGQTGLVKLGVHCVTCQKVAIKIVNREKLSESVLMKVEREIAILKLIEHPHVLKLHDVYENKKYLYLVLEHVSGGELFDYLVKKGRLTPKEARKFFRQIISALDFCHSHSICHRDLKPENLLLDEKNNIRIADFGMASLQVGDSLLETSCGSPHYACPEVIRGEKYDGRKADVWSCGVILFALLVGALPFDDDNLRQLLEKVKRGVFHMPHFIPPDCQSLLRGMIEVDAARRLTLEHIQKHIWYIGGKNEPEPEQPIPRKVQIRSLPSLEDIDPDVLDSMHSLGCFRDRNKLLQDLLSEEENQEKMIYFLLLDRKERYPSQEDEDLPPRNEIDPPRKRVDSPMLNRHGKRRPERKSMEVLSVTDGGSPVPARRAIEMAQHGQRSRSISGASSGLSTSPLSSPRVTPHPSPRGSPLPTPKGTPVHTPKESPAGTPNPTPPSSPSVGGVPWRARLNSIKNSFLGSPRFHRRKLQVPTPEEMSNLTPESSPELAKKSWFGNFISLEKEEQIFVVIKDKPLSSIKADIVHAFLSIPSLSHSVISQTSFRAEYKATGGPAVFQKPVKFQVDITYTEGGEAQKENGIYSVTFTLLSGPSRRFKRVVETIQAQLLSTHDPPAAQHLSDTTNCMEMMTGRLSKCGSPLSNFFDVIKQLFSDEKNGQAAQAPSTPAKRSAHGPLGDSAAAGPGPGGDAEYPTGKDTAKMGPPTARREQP
Summary of the method: as §1

[1] = read-out: % Enzyme Activity (relative to DMSO controls) Run 1
[2] = read-out: % Enzyme Activity (relative to DMSO controls) Run 2

T1 sequence (O00506 whole entry): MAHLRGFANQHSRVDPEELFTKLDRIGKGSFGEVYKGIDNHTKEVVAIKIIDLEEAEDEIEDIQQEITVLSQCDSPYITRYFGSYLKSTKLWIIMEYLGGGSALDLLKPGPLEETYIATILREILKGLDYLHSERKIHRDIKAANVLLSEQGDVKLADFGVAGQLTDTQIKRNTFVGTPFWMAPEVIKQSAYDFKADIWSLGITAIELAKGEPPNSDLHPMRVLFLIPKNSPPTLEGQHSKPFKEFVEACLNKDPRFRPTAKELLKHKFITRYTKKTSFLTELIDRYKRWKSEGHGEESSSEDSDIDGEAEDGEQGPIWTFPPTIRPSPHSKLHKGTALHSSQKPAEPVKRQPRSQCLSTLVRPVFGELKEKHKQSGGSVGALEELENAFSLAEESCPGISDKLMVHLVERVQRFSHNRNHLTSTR

Q: Which results are given for `C=CC(=O)Nc1cccc(Nc2nc(Nc3ccc(OCCOC)c(F)c3)ncc2F)c1` [Compound 2]?
A: inhibition at 3 µM (STK25/YSK1): 5.72%; remaining activity at 3 µM (STK25/YSK1; [1]): 94.5%; remaining activity at 3 µM (STK25/YSK1; [2]): 94.1%; inhibition at 3 µM (LYN B): 5.7%; remaining activity at 3 µM (LYN B; [1]): 92.9%; remaining activity at 3 µM (LYN B; [2]): 95.7%; inhibition at 3 µM (TYK1/LTK): 23.2%; remaining activity at 3 µM (TYK1/LTK; [1]): 77.8%; remaining activity at 3 µM (TYK1/LTK; [2]): 75.8%; inhibition at 3 µM (ASK1/MAP3K5): -1.62%; remaining activity at 3 µM (ASK1/MAP3K5; [1]): 101%; remaining activity at 3 µM (ASK1/MAP3K5; [2]): 102%; inhibition at 3 µM (CAMK2a): -9.6%; remaining activity at 3 µM (CAMK2a; [1]): 109%; remaining activity at 3 µM (CAMK2a; [2]): 110%; inhibition at 3 µM (BRSK2): 8.66%; remaining activity at 3 µM (BRSK2; [1]): 91%; remaining activity at 3 µM (BRSK2; [2]): 91.7%
